Measured values published in PMC12055641, “The Study of Antistaphylococcal Potential of Omiganan and Retro-Omiganan Under Flow Conditions” (Probiotics and Antimicrobial Proteins, 2024).
No end group written: not given here.

Legend:
[1] = tested on: S. aureus clinical strain 051N (MRSA) biofilm; conditions: clinical strain 051N biofilm, 24 h
Excerpt: (§1) Clinical S. aureus strains were collected from patients with atopic dermatitis during their visits to the Outpatient Clinic and hospitalization in the Department of Dermatology, Venereology and Allergology at Medical University of Gdańsk (following the approval from the ethics committee, Approval Number NKBBN/242–477/2014). Reference strains of S. aureus ATCC 25923, S. aureus ATCC 33591, S. aureus ATCC 9144, and S. aureus ATCC 12598 were obtained from the American Type Culture Collection. All the strains were stored at − 80 °C in Roti®-Store cryo vials (Carl Roth GmbH, Karlsruhe, Germany) and before the tests were transferred into fresh Mueller–Hinton Medium (BioMaxima, Lublin, Poland) and incubated for 24 h at 37 °C. Subsequently, each bacterial inoculum was seeded on Mueller–Hinton agar plates (BioMaxima) and incubated again for 24 h. The cultures prepared in this way were used in further antimicrobial assays. Minimum inhibitory concentrations (MICs) were determined according to the Clinical and Laboratory Standards Institute recommendations. […] The experiments were conducted on 96-well microtiter plates, with a final volume of 100 μL. Additionally, in the case of daptomycin, the medium was supplemented with Ca^2+ (50 mg/L). Cell densities were adjusted spectrophotometrically (Multiskan™ GO Microplate Spectrophotometer, Thermo Scientific) at 600 nm. The MICs were taken as the lowest drug concentration at which a visible growth of the microorganisms was inhibited. Minimum biofilm eliminating concentrations (MBECs) were determined on 96-well flat-bottomed microtiter polystyrene plates with resazurin (7-hydroxy-3H-phenoxazin-3-one 10-oxide sodium salt) as a cell viability reagent. To do this, the plates were filled with 100 μL of the initial inoculums of bacteria (0.5 × 10^7 CFU/mL) in the Mueller–Hinton broth and incubated for 24 h at 37 °C. […] After 24 h of incubation, 20 μL of resazurin (4 mg/mL) was added to each well and the MBEC values were read. Minimum biofilm inhibitory concentrations (MBICs) were also determined on 96-well flat-bottomed microtiter polystyrene plates as described previously. To do this, 50 μL of the compounds in the concentration range, diluted MHB, were prepared. Subsequently, the 50 μL of the staphylococcal inoculums were added to reach the same density of bacteria as that in the MBEC assay. After 24 h of incubation at 37 °C, the wells were rinsed three times with PBS and the fresh medium (100 μL) with resazurin (0.6 mg/mL) was added. Then, after 1 h of incubation, MBICs were read. […] All experiments were conducted in triplicate.

[2] = tested on: S. aureus clinical strain 043SC (MRSA) biofilm; conditions: clinical strain 043SC biofilm, 24 h
Excerpt: as §1

[3] = tested on: S. aureus clinical strain 015N (MRSA) biofilm; conditions: clinical strain 015N biofilm, 24 h
Excerpt: as §1

[4] = tested on: reference and clinical strains of staphylococci (S. aureus); conditions: 24 h
Excerpt: as §1

[5] = tested on: S. aureus clinical strain 004N (MRSA); conditions: 24 h
Excerpt: as §1

[6] = tested on: S. aureus ATCC 33591 (MRSA) biofilm; conditions: ATCC 33591, 24 h
Excerpt: as §1

[7] = tested on: S. aureus clinical strain 015N (MRSA); conditions: 24 h
Excerpt: as §1

[8] = tested on: S. aureus clinical strain 051N (MRSA); conditions: 24 h
Excerpt: as §1

[9] = tested on: biofilm of reference and clinical strains of staphylococci (S. aureus); conditions: for mean MBEC (initial values): 24 h
Excerpt: as §1

[10] = tested on: S. aureus clinical strain 043SC (MRSA); conditions: 24 h
Excerpt: as §1

[11] = tested on: S. aureus ATCC 33591 (MRSA); conditions: ATCC 33591, 24 h
Excerpt: as §1

[12] = tested on: S. aureus clinical strain 004N (MRSA) biofilm; conditions: clinical strain 004N biofilm, 24 h
Excerpt: as §1

[13] = tested on: human keratinocytes (HaCaT); type: cell-based; conditions: 24 h
Method: To evaluate the cytotoxicity of the peptides (IC50), the classic MTT assay on 96-well plates was performed for human keratinocytes (HaCaT) which were acquired from the ATCC. The assay utilizes colorimetric determination of the cell metabolic activity, and the color intensity reflects the number of live cells that can be measured spectrophotometrically. […] DMSO was added to the control cells at a final concentration of 1.0% (v/v), which was related to the maximum concentration of the solvent compounds used in the experiment. After 24 h of incubation at 37 °C (humidified 5% CO2 incubator) with the peptides, a medium containing 1 mg/mL of MTT was added to the wells up to a final concentration of 0.5 mg/mL. Subsequently, the plates were incubated at 37 °C for 4 h. Then, the medium was aspirated, and the formazan product was solubilized with DMSO. The background absorbance at 630 nm was subtracted from that at 570 nm for each well (Epoch, BioTek Instruments, USA). Six replicates were conducted for each concentration. All experiments were repeated at least twice and the resulting IC50 values were calculated with GraFit 7 software (v. 7.0, Erithacus, Berkley, CA, USA).

Hemolysis assay = type: cell-based; conditions: human, human red blood cells (RBCs), 64 μg/mL (lowest concentration causing hemolysis > 10%); read-out: degree of hemolysis
Method: The hemolysis assay was conducted using a procedure described previously. […] The control wells for 0% hemolysis and 100% hemolysis consisted of RBCs suspended in PBS and 1% of Triton X-100, respectively. […] After centrifugation, the supernatant was carefully […] to new microtiter plates and the release of hemoglobin was monitored by absorbance readings at 540 nm (MultiskanTM GO Microplate Spectrophotometer, Thermo Scientific). All experiments were conducted in triplicate. Blood collection was approved by Medical University of Gdańsk ethics committee (Consent Number: NKBBN/264/2019).

[14] = tested on: S. aureus clinical strain 031S
Excerpt: as §1

[15] = tested on: S. aureus clinical strain 030N
Excerpt: as §1

[16] = tested on: S. aureus ATCC 12598 biofilm; conditions: ATCC 12598, reference strain
Excerpt: as §1

[17] = tested on: S. aureus clinical strain 031S biofilm
Excerpt: as §1

[18] = tested on: S. aureus ATCC 9144 biofilm; conditions: ATCC 9144, reference strain
Excerpt: as §1

S. aureus ATCC 12598 = conditions: ATCC 12598, reference strain
Excerpt: as §1

[19] = tested on: S. aureus clinical strain 009S
Excerpt: as §1

[20] = tested on: S. aureus clinical strain 060S biofilm
Excerpt: as §1

[21] = tested on: S. aureus clinical strain 005S biofilm
Excerpt: as §1

[22] = tested on: S. aureus clinical strain 030N biofilm
Excerpt: as §1

S. aureus ATCC 9144 = conditions: ATCC 9144, reference strain
Excerpt: as §1

[23] = tested on: S. aureus clinical strain 060S
Excerpt: as §1

[24] = tested on: S. aureus ATCC 25923 biofilm; conditions: ATCC 25923, reference strain
Excerpt: as §1

S. aureus ATCC 25923 = conditions: ATCC 25923, reference strain
Excerpt: as §1

[25] = tested on: S. aureus clinical strain 005S
Excerpt: as §1

[26] = tested on: S. aureus clinical strain 009S biofilm
Excerpt: as §1

[27] = tested on: S. aureus ATCC 6538 biofilm; conditions: ATCC 6538, reference strain
S. aureus ATCC 6538 = conditions: ATCC 6538, reference strain
[28] = tested on: S. aureus ATCC 6538 biofilm; conditions: ATCC 6538, reference strain; remark: listed apart in the source
cells = tested on: cells; set-up: method as in PMID 11294848; conditions: low concentrations; cited from earlier work

KRRWPWWPWRLI-NH2 [Retro-omiganan Cl^−] showed an MBEC [1] of 64 µg/mL, an MBIC [1] of 16 µg/mL and an MBEC [2] of 32 µg/mL. It also gave an MBIC [2] of 16 µg/mL, an MBEC [3] of 32 µg/mL and an MBIC [3] of 16 µg/mL. The “mean MIC (initial values)” value [4] was 8.93 µg/mL, the MIC [5] was 16 µg/mL and the MBEC [6] was 32 µg/mL. For the same substance, the MBIC [6] was 32 µg/mL, the MIC [7] was 8 µg/mL and the MIC [8] was 16 µg/mL. For the same substance, the “mean MBEC (initial values)” value [9] was 36.57 µg/mL, the MIC [10] was 8 µg/mL and the MIC [11] was 16 µg/mL. It also gave an MBEC [12] of 64 µg/mL, an MBIC [12] of 16 µg/mL and an IC50 [13] of 26.66 µg/mL. The hemolysis at 60 min, 64 μg/mL (Hemolysis assay) was 16%.
Work on KRRWPWWPWRLI-NH2 [Retro-omiganan TFA^−] yielded an MIC [14] of 2 µg/mL, an MBEC [1] of 32 µg/mL and an MBIC [1] of 32 µg/mL. It also gave an MIC [15] of 16 µg/mL, an MBEC [2] of 16 µg/mL and an MBIC [2] of 8 µg/mL. The MBEC [3] was 32 µg/mL, the MBIC [3] was 16 µg/mL and the “mean MIC (initial values)” value [4] was 7.18 µg/mL. It also gave an MBEC [16] of 32 µg/mL, an MBIC [16] of 16 µg/mL and an MBEC [17] of 16 µg/mL. It also gave an MBEC [18] of 32 µg/mL, an MBIC [18] of 16 µg/mL and an MIC (S. aureus ATCC 12598) of 8 µg/mL. The MIC [19] was 1 µg/mL, the MBEC [20] was 16 µg/mL and the MBIC [20] was 1 µg/mL. It also gave an MIC [5] of 8 µg/mL, an MBEC [21] of 16 µg/mL and an MBIC [21] of 2 µg/mL. It also gave an MBEC [22] of 32 µg/mL, an MBIC [22] of 8 µg/mL and an MIC (S. aureus ATCC 9144) of 8 µg/mL. It also gave an MBEC [6] of 64 µg/mL, an MBIC [6] of 16 µg/mL and an MIC [7] of 8 µg/mL. For the same substance, the MIC [8] was 8 µg/mL, the MIC [23] was 1 µg/mL and the MBEC [24] was 128 µg/mL. For the same substance, the MBIC [24] was 16 µg/mL, the “mean MBEC (initial values)” value [9] was 40.00 µg/mL and the “mean MBIC (initial values)” value ([9]; average over 14 strains, polystyrene 96-well plates, not corrected) was 11.82 µg/mL. It also gave an MIC [10] of 8 µg/mL, an MIC [11] of 16 µg/mL and an MBEC [12] of 64 µg/mL. It also gave an MBIC [12] of 16 µg/mL, an MIC (S. aureus ATCC 25923) of 8 µg/mL and an MIC [25] of 0.5 µg/mL. The MBEC [26] was 16 µg/mL, the MBIC [26] was 2 µg/mL and the MBEC [27] was 64 µg/mL. It also gave an IC50 [13] of 29.51 µg/mL, an MIC (S. aureus ATCC 6538) of 8 µg/mL and an MBIC [28] of 16 µg/mL.
For “indolicidin: antimicrobial peptide derived from bovine neutrophil granules (ILPWKWPWWPWRR; ends and bridges not checked; UniProt P33046 131-143, looked up)”, the “cells with membrane depolarization” value (cells) is given as “up to 75%”.
